# Source: publication PMC3583349 (Pest management science, 2012)
# Where two headings read alike, the source gives them in different places.
# T1: CpGSTD1 (Culex pipiens, UniProt H9M8E3)
# T1 sequence (H9M8E3 1-211): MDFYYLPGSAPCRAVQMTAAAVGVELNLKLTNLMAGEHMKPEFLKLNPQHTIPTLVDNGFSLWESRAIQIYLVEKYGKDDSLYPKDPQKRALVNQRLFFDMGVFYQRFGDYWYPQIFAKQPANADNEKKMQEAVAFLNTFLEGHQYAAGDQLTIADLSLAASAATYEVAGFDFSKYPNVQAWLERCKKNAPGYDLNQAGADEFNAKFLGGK
# T2: CpGSTD2 (Culex pipiens, UniProt H9M8E4)
# T2 sequence (H9M8E4 1-214): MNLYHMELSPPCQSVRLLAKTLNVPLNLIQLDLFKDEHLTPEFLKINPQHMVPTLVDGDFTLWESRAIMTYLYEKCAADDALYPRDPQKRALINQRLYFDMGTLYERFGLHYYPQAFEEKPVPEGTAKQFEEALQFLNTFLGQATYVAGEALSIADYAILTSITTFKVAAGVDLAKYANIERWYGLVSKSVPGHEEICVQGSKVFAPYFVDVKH
# B1: CpGSTD2 (Culex pipiens) (protein)
# chain: T2 sequence (H9M8E4 1-214)
# Columns and labels:
# CpGSTD1 [1] = target: T1, CpGSTD1; assay: Peroxidase activity assay with CMHP, CpGSTD1; assay type: biochemical; conditions: 0.125 to 1.0 mM CMHP, 7.5 mM reduced GSH, 25°C, pH 6.5
# CpGSTD2 [2] = target: T2, CpGSTD2; assay: Peroxidase activity assay with CMHP, CpGSTD2; assay type: biochemical; conditions: pH 7.5; conditions where a rate of at least 0.1 μmol min^−1 mg^−1 could be detected with CpGSTD1
# CpGSTD1 [3] = target: T1, CpGSTD1; conditions: pH 6.5
# CpGSTD2 [4] = target: T2, CpGSTD2
# GST-2 = conditions: cited from earlier work
# GST-1b = conditions: cited from earlier work
# CpGSTD1 [5] = target: T1, CpGSTD1; assay: biochemical
# CpGSTD2 [6] = target: T2, CpGSTD2; assay: biochemical
# CpGSTD1 [7] = target: T1, CpGSTD1; assay: DDT dehydrochlorination assay, CpGSTD1; assay type: biochemical; conditions: over a period of 2 h, 1 μM DDT, 15 mM reduced GSH, 30°C, pH 6.5, HPLC
# CpGSTD1 [8] = target: T1, CpGSTD1; conditions: for Km: pH 6.5
# CpGSTD2 [9] = target: T2, CpGSTD2; remark: listed apart in the source
# AgGSTD1-6 = conditions: cited from earlier work
# AdGSTD1-1 = conditions: cited from earlier work
# CpGSTD1 [10] = target: T1, CpGSTD1; assay: Permethrin metabolism assay; assay type: biochemical; conditions: for Ratio of the area under the curve relative to lambda cyhalothrin: after 2 h incubation at 30°C with CpGSTD1, 1 μM permethrin, HPLC
# CpGSTD2 [11] = target: T2, CpGSTD2; assay: Permethrin metabolism assay; assay type: biochemical; conditions: for Ratio of the area under the curve relative to lambda cyhalothrin: after 2 h incubation at 30°C with CpGSTD2, 1 μM permethrin, HPLC
# [12] = substrate: O=[N+]([O-])c1ccc(Cl)c(Cl)c1; assay: purified protein, by the assay type; conditions: pH 7.5; 30.0 °C
# [13] = varying substrate 7.8 to 750 μM, 5 mM reduced GSH, 30°C, pH 7.5
# [14] = 2 h, 30°C, conditions where a rate of 7 pmol min^−1 mg^−1 could have been reliably detected
molecule,measurement,setting,value
"CC(C)(OO)c1ccccc1 [CMHP, cumene hydroperoxide]",rate of CMHP reduction (peroxidase activity),CpGSTD1 [1],1.6 µmol/min/mg
same,activity towards CMHP (peroxidase activity),CpGSTD2 [2],no detectable activity
"CCCCCCSC[C@H](NC(=O)CC[C@H](N)C(=O)O)C(=O)NCC(=O)O [S-hexyl glutathione, S-hexylglutathione]",IC50,CpGSTD1 [3],68 ± 3 µM
same,IC50,CpGSTD2 [4],0.24 µM
same,IC50,CpGSTD2 [4]; pH 7.5,0.24 ± 0.01 µM
O=C(/C=C/c1ccccc1)c1ccccc1 [chalcone],IC50,GST-2,165 µM
same,IC50,GST-1b,166 µM
same,IC50,CpGSTD1 [5],12.1 ± 0.4 µM
same,IC50,CpGSTD2 [6],4 ± 0.2 µM
"Clc1ccc(C(c2ccc(Cl)cc2)C(Cl)(Cl)Cl)cc1 [DDT, 1,1,1-Trichloro-2,2-bis(4-chlorophenyl)ethane]",rate of DDT metabolism to DDE,CpGSTD1 [7],6.4 ± 0.6 nmol per mg protein
"O=[N+]([O-])c1ccc(Cl)c([N+](=O)[O-])c1 [CDNB, 1-chloro-2,4-dinitrobenze]",catalytic efficiency (kcat/KM) higher with CDNB than with DCNB,CpGSTD1 [8]; CpGSTD1,at least 100 fold
same,turnover of CDNB faster than DCNB,"CpGSTD1 [8]; CpGSTD1, CDNB versus DCNB",about 230 fold
same,turnover of CDNB by CpGSTD1 faster than by CpGSTD2,CpGSTD1 [8]; CpGSTD1 versus CpGSTD2,about 3 fold
same,Km,CpGSTD1 [8],140 ± 10 µM
same,kcat,"CpGSTD2 [9]; 5 mM reduced GSH, 30°C, pH 7.5",7.0 s⁻¹
same,catalytic efficiency (kcat/KM) higher with CDNB than with DCNB,CpGSTD2 [9]; CpGSTD2,at least 100 fold
same,turnover of CDNB faster than DCNB,"CpGSTD2 [9]; CpGSTD2, CDNB versus DCNB",about 18 fold
same,Km,CpGSTD2 [9]; [13],30 ± 2 µM
same,Vmax,CpGSTD2 [9]; [13],18 ± 0.2 µmol/min/mg
same,catalytic efficiency ratio (kcat/KM),AgGSTD1-6,790000 M⁻¹ s⁻¹
same,catalytic efficiency ratio (kcat/KM),AdGSTD1-1,48000 M⁻¹ s⁻¹
CC1(C)[C@H](C(=O)OCc2cccc(Oc3ccccc3)c2)[C@@H]1C=C(Cl)Cl [cis-permethrin],Ratio of the area under the curve relative to lambda cyhalothrin,CpGSTD1 [10],0.47 ± 0.02
same,Ratio of the area under the curve relative to lambda cyhalothrin,CpGSTD2 [11],0.51 ± 0.03
"C=C(CC)C(=O)c1ccc(OCC(=O)O)c(Cl)c1Cl [ethacrynic acid (EA), ethacrynic acid]",IC50,CpGSTD2 [6],2.5 ± 0.1 µM
CC1(C)C(C=C(Cl)Cl)C1C(=O)OCc1cccc(Oc2ccccc2)c1 (centres unmarked) [permethrin],metabolism of permethrin,CpGSTD1 [10]; [14],neither CpGSTD1 nor CpGSTD2 are able to metabolize
same,metabolism of permethrin,CpGSTD2 [11]; [14],neither CpGSTD1 nor CpGSTD2 are able to metabolize
"O=[N+]([O-])c1ccc(Cl)c(Cl)c1 [DCNB, 1,2-dichloro-4-nitrobenzene]",Km,CpGSTD1 [8],170 ± 10 µM
CC1(C)[C@H](C=C(Cl)Cl)[C@H]1C(=O)OCc1cccc(Oc2ccccc2)c1 [trans-permethrin],Ratio of the area under the curve relative to lambda cyhalothrin,CpGSTD1 [10],0.24 ± 0.01
same,Ratio of the area under the curve relative to lambda cyhalothrin,CpGSTD2 [11],0.29 ± 0.02
"O=C(/C=C/c1ccc(O)cc1)c1ccccc1 [4-hydroxy chalcone, 4-hydroxychalcone]",IC50,CpGSTD1 [5],16 ± 1 µM
same,IC50,CpGSTD2 [6],5 ± 0.2 µM
B1,Km,[12],220 ± 10 µM
same,Vmax,[12],0.96 ± 0.02 µmol/min/mg
same,kcat,[12],0.4 s⁻¹
same,kcat/Km,[12],1700 M⁻¹ s⁻¹
